Results on one compound are retold here after patent US20250222051A1, “MU[…] ADJUVANT TREATMENT OF TUMOR, AND PREPARATION METHOD AND APPLICATION THEREOF” (Changde Jizhi Biological Technology Co., Ltd, priority 2024, published 2025).

One data set concerns mouse H22 hepatoma cells. Conditions: oxaliplatin 15 mg/kg tail vein once, products 0.45 g/kg intragastric.
The subject of data set [1] is Human lung cancer cells (A549). The settings on record: A549 transplanted tumor, oxaliplatin 15 mg/kg tail vein once, products 0.45 g/kg intragastric.
Description: (§1) Experimental animals: BLAB/c female nude mice, 6-7 weeks old, weighing 18-20 g.
(§2) Subcutaneous tumor cell inoculation in mice: Human lung cancer cells (A549), human ovarian cancer cells (Skov-3) and human cervical cancer epithelial cells (Hela) in logarithmic growth phase are taken and made into cell suspension (1×10^7 cells/mL) with phosphate buffered saline (PBS), each mouse is inoculated with 2×10^6 cells, the inoculation volume is 200 microliters (μL), and then inoculated subcutaneously in the armpit of BLAB/c nude mice. The selected tumor tissues are put into a glass homogenizer, ground with sterile physiological saline, filtered into a single cell suspension through a sieve, and the number of living cells is counted by trypan blue staining. Each nude mouse is inoculated with 200 μL cell suspension (including 1×10^6 cells) under its armpit.
(§3) Experimental grouping and methods: nude mice with the same tumor size are selected, and the nude mice are weighed and randomly divided into groups. […] The drug concentration and specific grouping are as follows. The model control group is intragastrically administered with 200 μL normal saline once a day, the mice are administered once on the second day after tumor inoculation. […] After 24 hours of the last administration, the tumor mass is taken out, the tumor weight is measured and the tumor inhibition rate is calculated.
Data set [2] concerns human ovarian cancer cells (Skov-3). Conditions: Skov-3 transplanted tumor, oxaliplatin 15 mg/kg tail vein once, products 0.45 g/kg intragastric.
Description: as §1, §2, §3
Data set [3] relates to human cervical cancer epithelial cells (Hela). The settings on record: Hela transplanted tumor, oxaliplatin 15 mg/kg tail vein once, products 0.45 g/kg intragastric.
Description: as §1, §2, §3

Protocol for mouse H22 hepatoma cells: The anti-tumor effect of the product of the disclosure on a Hepatoma-22 (H22) mouse model of live cancer is studied.
Positive control drug: oxaliplatin.
Animals and preparation of tumors are as follows. BALB/c male mice are adopted, weighing 18-22 g. The mice are fed in specific-pathogen free (SPF) grade animal house, with temperature of 20-25° C., relative humidity of 40%-70%, 6 mice per cage, illumination time of 12 h, regular and quantitative addition of feed, free drinking water, and daily replacement of padding.
Transplanted tumor cells: 10^6 mouse H22 hepatoma cells are injected into abdominal cavity for passage, and the hepatoma cells are collected after 7-10 days for subcutaneous inoculation.
Experimental methods of tumor passage preservation for in vivo tumor inhibition effect evaluation: H22 hepatoma mice are inoculated intraperitoneally and the ascites is taken for passage and preservation.
Tumor inoculation: H22 hepatocellular carcinoma bearing mice on the 10th day of ascites passage are taken, the mice are killed by cervical vertebra removal, the abdominal skin is disinfected, milky white ascites is absorbed with a sterile syringe, and the concentration of tumor cells is adjusted to 1×10^6 cells per milliliter (mL) with normal saline for injection. The right armpit skin of BALB/c mice is disinfected with alcohol cotton balls, 0.2 mL of the tumor cell suspension is inoculated subcutaneously, and the mice are raised routinely.
After 24 hours of the last administration, the mice are sacrificed by cervical dislocation, and the tumor tissues are stripped and weighed. The curative effect is evaluated by tumor weight inhibition rate (%), and analysis of variance (ANOVA) test is used for statistical comparison between groups.

As for `O=C1[O][Pt]2([NH][C@@H]3CCCC[C@H]3[NH]2)[O]C1=O` [Oxaliplatin, oxaliplatin], the “Tumor weight” value with mouse H22 hepatoma cells (H22 subcutaneous tumor, 24 hours after last administration) is reported as 1.14 ± 0.29 g; in data set [1] (X ± SD), 0.98 ± 0.32 g; in data set [2] (X ± SD) it was 1.78 ± 0.33 g; in data set [3] (X ± SD) it was 1.78 ± 0.33 g. The “Inhibition rate (%)” value stood at 50.22% in the data set with mouse H22 hepatoma cells (H22 tumor weight inhibition rate), 58.25% in data set [1], 45.25% in data set [2] and 45.25% in data set [3]. Besides, the “Weight Start” value with mouse H22 hepatoma cells (body weight of H22 tumor-bearing mice at start) amounted to 20.09 ± 1.08.
